pIC50: −log10 of the molar value.

The target in test [1] is T1, human HIF-PHD3 (Homo sapiens, UniProt Q9H6Z9).
T1 construct: purchased CrystalGenomics Ltd
The test is described as follows: HIF-PHD inhibition assay (fluorescence polarization), human HIF-PHD3. Type of test: biochemical. The note with it: 2-oxoglutaric acid 166 μmol/L. In a few lines:
(§1)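 Measured signal: mP difference, after versus before enzyme addition, representing enzyme activity. Detection relied on a FAM-tagged, ACA-spaced fluorescent probe.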
Background: In fluorescence polarisation assays a small probe gives low polarisation when free and higher when bound to something large.

For test [2], the system named is Hep3B cells. The test is described as follows: EPO production assay (ELISA of culture supernatant). Type of test: cell-based. The note with it: Homo sapiens, 3 μmol/L test compound, 48 hours, relative to control (0.1% DMSO), read-out: EPO production stimulation rate with 3 μmol/L test compound. As for the experimental part:
The stimulatory effect of the compound onEPO production was determined as follows using Hep3B cells.
Cells were seeded on 96 well plates at 40000 cells/well, and the plate was incubated overnight in MEM medium containing 10% fetal bovine serum (FBS) at 37° C. under 5% CO2. The next day, the medium was replaced with MEM containing 0.5% FBS, followed by addition of test compound. The test compound was dissolved in dimethyl sulfoxide and added to the cell so that the final concentration of dimethyl sulfoxide was 0.1%. After incubation for additional 48 hours, the culture supernatant was collected, and EPO contained in the supernatant was determined using ELISA kit (EPO ELISA Kit 11-693-417-001, Roche Co.). The results were expressed as stimulation rate of EPO production (fold), which was calculated as the relative value of the EPO production with 3 μmol/L of the test compound compared to the EPO production without stimulation (control).
Stimulation rate of EPO production (fold)=(EPO production with addition of test compound)/(EPO production of control)
(ELISA stands for enzyme-linked immunosorbent assay.)

The target in test [3] is T2, human HIF-PHD2 (Homo sapiens, UniProt Q9GZT9).
T2 construct: purchased CrystalGenomics Ltd
The test is described as follows: HIF-PHD inhibition assay (fluorescence polarization), human HIF-PHD2. The class given is biochemical. The conditions noted are these: 2-oxoglutaric acid 3.33 μmol/L. An outline of the steps: as §1

T1 sequence (Q9H6Z9 whole entry): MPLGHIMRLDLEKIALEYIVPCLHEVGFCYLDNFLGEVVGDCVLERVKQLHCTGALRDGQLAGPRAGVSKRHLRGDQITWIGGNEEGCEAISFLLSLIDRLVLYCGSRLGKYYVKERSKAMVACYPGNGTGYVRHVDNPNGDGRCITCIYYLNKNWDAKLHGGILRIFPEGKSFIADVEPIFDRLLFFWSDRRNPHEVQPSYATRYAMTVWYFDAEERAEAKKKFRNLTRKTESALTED
T2 sequence (Q9GZT9 2-426 limits assumed): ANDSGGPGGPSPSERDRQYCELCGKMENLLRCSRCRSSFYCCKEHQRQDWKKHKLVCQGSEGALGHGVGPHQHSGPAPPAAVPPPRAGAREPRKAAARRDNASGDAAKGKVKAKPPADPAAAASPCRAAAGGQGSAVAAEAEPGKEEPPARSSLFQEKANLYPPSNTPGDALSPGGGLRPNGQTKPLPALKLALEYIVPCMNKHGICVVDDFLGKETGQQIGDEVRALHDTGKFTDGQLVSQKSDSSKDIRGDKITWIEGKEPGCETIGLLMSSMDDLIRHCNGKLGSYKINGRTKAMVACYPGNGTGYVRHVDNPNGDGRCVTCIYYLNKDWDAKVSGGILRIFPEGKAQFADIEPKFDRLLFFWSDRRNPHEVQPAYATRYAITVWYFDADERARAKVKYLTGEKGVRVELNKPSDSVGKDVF

With `O=C(O)c1cnn(-c2nc(O)c3c(cnn3Cc3ccc(F)c(C(F)(F)F)c3)n2)c1` [Example 12], the pIC50 in test [1] was below 5.52; in test [3] it was 7.36. In test [2], the fold induction at 3 µM worked out at 2.3.

With `O=C(O)c1cnn(-c2nc(O)c3c(cnn3CCc3ccc4ccccc4n3)n2)c1` [Example 117], the negative-log IC50 (pIC50) was 6.28 in test [1] and 7.43 in test [3]. Besides, the fold induction at 3 µM in test [2] came out at 2.

As for `O=C(O)c1cnn(-c2nc(O)c3c(cnn3CCC3CCOCC3)n2)c1` [Example 153], the pIC50 in test [1] is 6.05; in test [3], 7.23. In addition, the fold induction at 3 µM in test [2] is 1.5.

In the case of `O=C(O)c1cnn(-c2nc(O)c3c(cnn3CCCOc3ccc4c(c3C3CC3)CCCC4)n2)c1` [Example 191], the pIC50 in test [1] was 6.27; in test [3], 6.89. The fold induction at 3 µM in test [2] was found to be 1.6.

For `Cc1cc2c(cc1OCCCn1ncc3nc(-n4cc(C(=O)O)cn4)nc(O)c31)CCCC2` [Example 189], the pIC50 in test [1] is 6.82; in test [3], 7.70. Also, the fold induction at 3 µM in test [2] is 8.7.

For the compound `O=C(O)c1cnn(-c2nc(O)c3c(cnn3C[C@H]3CC[C@@H](C(F)(F)F)CC3)n2)c1` [Example 138], the figures for the pIC50 in test [1] and in test [3] were 6.22 and 6.80, respectively. For the same compound, the fold induction at 3 µM in test [2] is 2.9.

On to `O=C(O)c1cnn(-c2nc(O)c3c(cnn3C(c3ccc(Cl)cc3)c3ccc(Cl)cc3)n2)c1` [Example 27], for which the negative-log IC50 (pIC50) in test [1] is 5.59; in test [3], 7.70. Also, the fold induction at 3 µM in test [2] is 26.

As to `O=C(O)c1cnn(-c2nc(O)c3c(cnn3CCCOc3cccc4ccccc34)n2)c1` [Example 192], the pIC50 in test [1] was 6.46; in test [3], 7.55. Also, in test [2], the fold induction at 3 µM was found to be 3.5.

Take `C[C@H]1CC[C@H](Cn2nc(Cl)c3nc(-n4cc(C(=O)O)cn4)nc(O)c32)CC1` [Example 223]: the pIC50 in test [1] is 6.02; in test [3], 7.55. Moreover, the fold induction at 3 µM in test [2] is 3.2.

Turning to `O=C(O)c1cnn(-c2nc(O)c3nn(Cc4ccc(Cl)c(Cl)c4)cc3n2)c1` [Example 235], the pIC50 in test [1] is 7.89; in test [3] it was 8.52. Moreover, the fold induction at 3 µM in test [2] turned out to be 1.9.

In the case of `C[C@H](c1ccc2ccccc2c1)n1ncc2nc(-n3cc(C(=O)O)cn3)nc(O)c21` [Example 30], the negative-log IC50 (pIC50) in test [1] was 6.34; in test [3], 7.14. Besides, in test [2], the fold induction at 3 µM was found to be 5.5.

Consider `O=C(O)c1cnn(-c2nc(O)c3c(cnn3Cc3ccc(-c4ccccc4)cc3F)n2)c1` [Example 78], for which the negative-log IC50 (pIC50) was 7.17 in test [1] and 8.21 in test [3]. For the same compound, the fold induction at 3 µM in test [2] is 30.

Regarding `C[C@@H](c1ccccc1)n1ncc2nc(-n3cc(C(=O)O)cn3)nc(O)c21` [Example 17], the pIC50 in test [1] was 6.32; in test [3] it was 7.19. The fold induction at 3 µM in test [2] is 3.2.

Take `C[C@@H](c1ccc(F)cc1)n1ncc2nc(-n3cc(C(=O)O)cn3)nc(O)c21` [Example 18]: the pIC50 in test [1] was 6.35; in test [3], 7.46. In test [2], the fold induction at 3 µM was 5.6.

For the compound `O=C(O)c1cnn(-c2nc(O)c3c(cnn3CCCn3ccc4ccccc43)n2)c1` [Example 167], the pIC50 in test [1] was 6.85; in test [3], 7.77. Also, the fold induction at 3 µM in test [2] is 2.1.

On to `O=C(O)c1cnn(-c2nc(O)c3c(cnn3CCOc3cccc(C(F)(F)F)c3)n2)c1` [Example 202], for which the negative logarithm of the IC50 (pIC50) in test [1] was 6.52; in test [3] it was 7.23. The fold induction at 3 µM in test [2] amounted to 3.6.

In the case of `O=C(O)c1cnn(-c2nc(O)c3c(cnn3Cc3ccc4ccccc4c3F)n2)c1` [Example 34], the results for the pIC50 in test [1] and in test [3] were 6.62 and 7.77, respectively. In addition, the fold induction at 3 µM in test [2] stood at 1.2.

On to `O=C(O)c1cnn(-c2nc(O)c3c(cnn3CCCCc3ccc(Cl)cc3)n2)c1` [Example 165], for which the pIC50 is 6.68 in test [1] and 7.92 in test [3]. Besides, the fold induction at 3 µM in test [2] is 15.

In the case of `O=C(O)c1cnn(-c2nc(O)c3c(cnn3C[C@H]3CC[C@@H](Oc4ccc(F)cc4)CC3)n2)c1` [Example 150], the pIC50 is 6.39 in test [1] and 7.41 in test [3]. Moreover, the fold induction at 3 µM in test [2] is 9.

`O=C(O)c1cnn(-c2nc(O)c3c(cnn3Cc3cccc(-c4ccccc4C(F)(F)F)c3)n2)c1` [Example 47]: the figures for the negative-log IC50 (pIC50) in test [1] and in test [3] were 6.19 and 7.11, respectively. In test [2], the fold induction at 3 µM stood at 4.4.

`O=C(O)c1cnn(-c2nc(O)c3c(cnn3Cc3cccc(-c4ccccc4)c3)n2)c1` [Example 39]: the negative-log IC50 (pIC50) in test [1] is 6.46; in test [3], 7.60. The fold induction at 3 µM in test [2] was 5.

In the case of `Cc1ccc(C(C(C)C)n2ncc3nc(-n4cc(C(=O)O)cn4)nc(O)c32)cc1` (stereo not drawn) [Example 25], the negative-log IC50 (pIC50) is 5.54 in test [1] and 7.15 in test [3]. Also, the fold induction at 3 µM in test [2] was determined as 2.9.

`COc1cc(Cn2ncc3nc(-n4cc(C(=O)O)cn4)nc(O)c32)ccc1-c1c(F)cccc1F` [Example 97]: the figures for the pIC50 in test [1] and in test [3] were 6.52 and 7.47, respectively. Also, the fold induction at 3 µM in test [2] was found to be 5.2.

`O=C(O)c1cnn(-c2nc(O)c3c(cnn3Cc3cccc(-c4ccc(OC(F)(F)F)cc4)c3)n2)c1` [Example 43]: the pIC50 in test [1] was 6.70; in test [3] it was 7.82. Moreover, the fold induction at 3 µM in test [2] was 6.5.

On to `COc1ccc(-c2cccc(Cn3ncc4nc(-n5cc(C(=O)O)cn5)nc(O)c43)c2)cc1` [Example 42], for which the negative logarithm of the IC50 (pIC50) in test [1] was 5.85; in test [3] it was 7.85. In test [2], the fold induction at 3 µM was 9.1.

As to `O=C(O)c1cnn(-c2nc(O)c3c(cnn3CCc3cccc(Cl)c3)n2)c1` [Example 114], the negative-log IC50 (pIC50) in test [1] was 6.52; in test [3], 7.70. Further, the fold induction at 3 µM in test [2] came to 5.2.

With `O=C(O)c1cnn(-c2nc(O)c3c(cnn3CC3Cc4ccccc4C3)n2)c1` [Example 154], the values for the pIC50 in test [1] and in test [3] were 6.54 and 7.54, respectively. Further, the fold induction at 3 µM in test [2] worked out at 5.4.

In the case of `CC(C)(Cn1ncc2nc(-n3cc(C(=O)O)cn3)nc(O)c21)c1ccc2ccccc2c1` [Example 118], the pIC50 in test [1] is 6.49; in test [3], 7.35. For the same compound, the fold induction at 3 µM in test [2] was 17.

On to `O=C(O)c1cnn(-c2nc(O)c3c(cnn3Cc3cc(F)cc(Br)c3)n2)c1` [Example 15], for which the pIC50 in test [1] was 6.54; in test [3], 7.28. Further, in test [2], the fold induction at 3 µM turned out to be 1.7.

Consider `O=C(O)c1cnn(-c2nc(O)c3nn(CCCN(c4ccccc4)c4ccccc4)cc3n2)c1` [Example 246], for which the negative logarithm of the IC50 (pIC50) in test [1] is 6.80; in test [3], 7.68. The fold induction at 3 µM in test [2] came out at 1.8.

In the case of `CC1(Cn2nc(F)c3nc(-n4cc(C(=O)O)cn4)nc(O)c32)CCCCC1` [Example 470], the pIC50 was 6.59 in test [1] and 7.32 in test [3]. In test [2], the fold induction at 3 µM stood at 1.7.

As to `O=C(O)c1cnn(-c2nc(O)c3c(cnn3C[C@H]3CC[C@H](c4ccccc4)CC3)n2)c1` [Example 155], the pIC50 was 7.15 in test [1] and 8.00 in test [3]. For the same compound, the fold induction at 3 µM in test [2] amounted to 11.

Regarding `Cc1ccc(C(C(C)C)n2ncc3nc(-n4cc(C(=O)O)cn4)nc(O)c32)cc1` (single isomer, unassigned) [Example 26], the negative logarithm of the IC50 (pIC50) in test [1] was 5.82; in test [3], 7.18. Further, the fold induction at 3 µM in test [2] was 3.4.

In the case of `O=C(O)c1cnn(-c2nc(O)c3nn(Cc4cccc(-c5ccccc5)c4)cc3n2)c1` [Example 240], the figures for the pIC50 in test [1] and in test [3] were 6.85 and 7.77, respectively. Further, the fold induction at 3 µM in test [2] is 1.

For the compound `O=C(O)c1cnn(-c2nc(O)c3c(cnn3CCOc3ccc4c(c3)CCCC4)n2)c1` [Example 208], the pIC50 in test [1] was 6.62; in test [3], 7.85. For the same compound, in test [2], the fold induction at 3 µM is 7.1.

`O=C(O)c1cnn(-c2nc(O)c3c(cnn3C[C@H]3CC[C@H](Oc4ccc(F)cc4)CC3)n2)c1` [Example 149]: the negative logarithm of the IC50 (pIC50) in test [1] is 7.27; in test [3], 7.77. Also, the fold induction at 3 µM in test [2] amounted to 22.

Turning to `O=C(O)c1cnn(-c2nc(O)c3c(cnn3Cc3cccc(-c4cccc(C(F)(F)F)c4)c3)n2)c1` [Example 45], the values for the pIC50 in test [1] and in test [3] were 6.77 and 7.30, respectively. Moreover, in test [2], the fold induction at 3 µM was found to be 8.9.

Turning to `CC(C)[C@H]1CC[C@H](Cn2ncc3nc(-n4cc(C(=O)O)cn4)nc(O)c32)CC1` [Example 141], the pIC50 in test [1] was 6.57; in test [3], 7.85. In test [2], the fold induction at 3 µM was 1.2.

`O=C(O)c1cnn(-c2nc(O)c3c(cnn3CC3CCCCCC3)n2)c1` [Example 158]: the values for the pIC50 in test [1] and in test [3] were 6.51 and 7.62, respectively. In test [2], the fold induction at 3 µM is 1.2.

As for `O=C(O)c1cnn(-c2nc(O)c3c(cnn3CCOc3ccc(-c4ccccc4)cc3)n2)c1` [Example 205], the negative-log IC50 (pIC50) in test [1] was 6.55; in test [3], 7.89. In test [2], the fold induction at 3 µM stood at 20.

The term pIC50 denotes the IC50 on a negative log10 scale, so that one unit is a factor of ten.
